# Test results published in US8716309B2, “Pharmaceutical composition comprising pyridone derivatives” (priority 2011, dated 2014).
# Molecular target: human α7 nAChR (Homo sapiens, UniProt P36544)
# Assay: cell-based
# Conditions: EC50 of human α7nAChR(nM), HEK293T/17 cells transfected with human α7 nAChR; PNU-120596 added; relative to epibatidine 1 μM positive control
# Sequence of human α7 nAChR (P36544 23-502): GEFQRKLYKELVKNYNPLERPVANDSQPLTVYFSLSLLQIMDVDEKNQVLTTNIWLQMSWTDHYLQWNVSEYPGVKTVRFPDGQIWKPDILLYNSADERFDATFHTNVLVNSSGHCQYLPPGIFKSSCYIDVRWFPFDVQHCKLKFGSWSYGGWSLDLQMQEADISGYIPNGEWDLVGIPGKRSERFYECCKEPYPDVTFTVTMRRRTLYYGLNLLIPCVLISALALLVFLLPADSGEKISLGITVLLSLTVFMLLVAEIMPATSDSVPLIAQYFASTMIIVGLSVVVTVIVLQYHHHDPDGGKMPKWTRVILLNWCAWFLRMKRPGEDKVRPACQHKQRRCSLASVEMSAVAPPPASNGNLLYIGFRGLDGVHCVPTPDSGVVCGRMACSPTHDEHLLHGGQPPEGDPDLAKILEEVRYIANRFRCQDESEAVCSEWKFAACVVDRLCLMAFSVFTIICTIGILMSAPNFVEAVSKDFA
row,SMILES,EC50
1,"CSc1cc(Cl)ccc1-n1cc(C(=O)N[C@@H]2CN3CCC2CC3)ccc1=O [Example 88, N-[(3S)-1-azabicyclo[2.2.2]octan-3-yl]-1-[4-chloro-2-(methylthio)phenyl]-6-oxo-3-pyridinecarboxamide]",100 to 500 nM
2,"CCSc1cc(Cl)ccc1-n1cc(C(=O)NC2CN3CCC2CC3)ccc1=O (stereo not shown) [Example 97, N-(1-azabicyclo[2.2.2]octan-3-yl)-1-[4-chloro-2-(ethylthio)phenyl]-6-oxo-3-pyridinecarboxamide]",< 100 nM
3,"O=C(NC1CN2CCC1CC2)c1ccc(=O)n(-c2ccccc2-c2cccs2)c1 (stereo not shown) [Example 110, N-(1-azabicyclo[2.2.2]octan-3-yl)-6-oxo-1-(2-thiophene-2-ylphenyl)-3-pyridinecarboxamide]",100 to 500 nM
4,"CCc1ccc(-n2cc(C(=O)NC3CN4CCC3CC4)ccc2=O)cc1 (stereo not shown) [Example 14, N-(1-azabicyclo[2.2.2]octan-3-yl)-1-(4-ethylphenyl)-6-oxo-3-pyridinecarboxamide]",500 to 1000 nM
5,"COc1ccc(-n2cc(C(=O)NC3CN4CCC3CC4)ccc2=O)c(OC)c1 (stereo not shown) [Example 49, N-(1-azabicyclo[2.2.2]octan-3-yl)-1-(2,4-dimethoxyphenyl)-6-oxo-3-pyridinecarboxamide]",100 to 500 nM
6,"Cc1ccc(-n2cc(C(=O)NC3CN4CCC3CC4)ccc2=O)cc1 (stereo not shown) [Example 12, N-(1-azabicyclo[2.2.2]octan-3-yl)-1-(4-methylphenyl)-6-oxo-3-pyridinecarboxamide]",500 to 1000 nM
7,"CSc1ccc(-n2cc(C(=O)NC3CN4CCC3CC4)ccc2=O)cc1 (stereo not shown) [Example 76, N-(1-azabicyclo[2.2.2]octan-3-yl)-1-[4-(methylthio)phenyl]-6-oxo-3-pyridinecarboxamide]",100 to 500 nM
8,"O=C(NC1CN2CCC1CC2)c1ccc(=O)n(-c2ccc(Oc3ccc(Cl)cc3)cc2)c1 (stereo not shown) [Example 71, N-(1-azabicyclo[2.2.2]octan-3-yl)-1-[4-(4-chlorophenoxy)phenyl]-6-oxo-3-pyridinecarboxamide]",100 to 500 nM
9,"O=C(NC1CN2CCC1CC2)c1ccc(=O)n(-c2cccc3ccccc23)c1 (stereo not shown) [Example 102, N-(1-azabicyclo[2.2.2]octan-3-yl)-1-(1-naphthalenyl)-6-oxo-3-pyridinecarboxamide]",100 to 500 nM
10,"CCCc1ccc(-n2cc(C(=O)NC3CN4CCC3CC4)ccc2=O)cc1 (stereo not shown) [Example 15, N-(1-azabicyclo[2.2.2]octan-3-yl)-6-oxo-1-(4-propylphenyl)-3-pyridinecarboxamide]",500 to 1000 nM
11,"O=C(NC1CN2CCC1CC2)c1ccc(=O)n(-c2ccccc2Oc2ccccc2)c1 (stereo not shown) [Example 74, N-(1-azabicyclo[2.2.2]octan-3-yl)-6-oxo-1-(2-phenoxyphenyl)-3-pyridinecarboxamide]",100 to 500 nM
12,"Cc1ccccc1-n1cc(C(=O)NC2CN3CCC2CC3)ccc1=O (stereo not shown) [Example 11, N-(1-azabicyclo[2.2.2]octan-3-yl)-1-(2-methylphenyl)-6-oxo-3-pyridinecarboxamide]",> 1000 nM
13,"O=C(NC1CN2CCC1CC2)c1ccc(=O)n(-c2ccc(Cl)cc2F)c1 (stereo not shown) [Example 38, N-(1-azabicyclo[2.2.2]octan-3-yl)-1-(4-chloro-2-fluorophenyl)-6-oxo-3-pyridinecarboxamide]",100 to 500 nM
14,"CSc1cc(Cl)ccc1-n1cc(C(=O)N[C@H]2CN3CCC2CC3)ccc1=O [Example 87, N-[(3R)-1-azabicyclo[2.2.2]octan-3-yl]-1-[4-chloro-2-(methylthio)phenyl]-6-oxo-3-pyridinecarboxamide]",< 100 nM
15,"O=C(NC1CN2CCC1CC2)c1ccc(=O)n(-c2ccccc2SCc2ccccc2)c1 (stereo not shown) [Example 82, N-(1-azabicyclo[2.2.2]octan-3-yl)-6-oxo-1-[2-(phenylmethylthio)phenyl]-3-pyridinecarboxamide]",100 to 500 nM
16,"O=C(N[C@@H]1CN2CCC1CC2)c1ccc(=O)n(-c2ccc(Cl)cc2)c1 [Example 6, N-[(3S)-1-azabicyclo[2.2.2]octan-3-yl]-1-(4-chlorophenyl)-6-oxopyridine-3-carboxamide]",> 1000 nM
17,"O=C(NC1CN2CCC1CC2)c1ccc(=O)n(-c2cccc(Cl)c2Cl)c1 (stereo not shown) [Example 46, N-(1-azabicyclo[2.2.2]octan-3-yl)-1-(2,3-dichlorophenyl)-6-oxo-3-pyridinecarboxamide]",100 to 500 nM
18,"O=C(NC1CN2CCC1CC2)c1ccc(=O)n(-c2ccccc2Cl)c1 (stereo not shown) [Example 2, N-(1-azabicyclo[2.2.2]octan-3-yl)-1-(2-chlorophenyl)-6-oxo-3-pyridinecarboxamide]",< 100 nM
19,"O=C(NC1CN2CCC1CC2)c1ccc(=O)n(-c2cc(Cl)c(Cl)cc2Cl)c1 (stereo not shown) [Example 60, N-(1-azabicyclo[2.2.2]octan-3-yl)-1-(2,4,5-trichlorophenyl)-6-oxo-3-pyridinecarboxamide]",500 to 1000 nM
20,"Cc1ccc(-c2ccc(-n3cc(C(=O)NC4CN5CCC4CC5)ccc3=O)cc2)cc1 (stereo not shown) [Example 69, N-(1-azabicyclo[2.2.2]octan-3-yl)-1-[4-(4-methylphenyl)phenyl]-6-oxo-3-pyridinecarboxamide]",100 to 500 nM

row,SMILES,EC50
1,"O=C(NC1CN2CCC1CC2)c1ccc(=O)n(-c2ccccc2-c2nc3ccccc3s2)c1 (stereo not shown) [Example 107, N-(1-azabicyclo[2.2.2]octan-3-yl)-1-[2-(1,3-benzothiazole-2-yl)phenyl]-6-oxo-3-pyridinecarboxamide]",< 100 nM
2,"CSc1cc(C2CCCCC2)ccc1-n1cc(C(=O)NC2CN3CCC2CC3)ccc1=O (stereo not shown) [Example 99, N-(1-azabicyclo[2.2.2]octan-3-yl)-1-[4-cyclohexyl-2-(methylthio)phenyl]-6-oxo-3-pyridinecarboxamide]",100 to 500 nM
3,"O=C(NC1CN2CCC1CC2)c1ccc(=O)n(-c2ccccc2OCc2ccccc2)c1 (stereo not shown) [Example 63, N-(1-azabicyclo[2.2.2]octan-3-yl)-6-oxo-1-(2-phenylmethoxyphenyl)-3-pyridinecarboxamide]",> 1000 nM
4,"CCSc1ccccc1-n1cc(C(=O)NC2CN3CCC2CC3)ccc1=O (stereo not shown) [Example 80, N-(1-azabicyclo[2.2.2]octan-3-yl)-1-[2-(ethylthio)phenyl]-6-oxo-3-pyridinecarboxamide]",< 100 nM
5,"CCSc1cc(OC)ccc1-n1cc(C(=O)NC2CN3CCC2CC3)ccc1=O (stereo not shown) [Example 85, N-(1-azabicyclo[2.2.2]octan-3-yl)-1-[2-(ethylthio)-4-methoxyphenyl]-6-oxo-3-pyridinecarboxamide]",< 100 nM
6,"O=C(NC1CN2CCC1CC2)c1ccc(=O)n(-c2ccccc2Sc2ccccc2)c1 (stereo not shown) [Example 95, N-(1-azabicyclo[2.2.2]octan-3-yl)-6-oxo-1-[2-(phenylthio)phenyl]-3-pyridinecarboxamide]",< 100 nM
7,"CSc1ccccc1-n1cc(C(=O)N[C@@H]2CN3CCC2CC3)ccc1=O [Example 79, N-[(3S)-1-azabicyclo[2.2.2]octan-3-yl]-1-[2-(methylthio)phenyl]-6-oxo-3-pyridinecarboxamide]",100 to 500 nM
8,"Cc1ccc(-n2cc(C(=O)NC3CN4CCC3CC4)ccc2=O)c(C)c1 (stereo not shown) [Example 32, N-(1-azabicyclo[2.2.2]octan-3-yl)-1-(2,4-dimethylphenyl)-6-oxo-3-pyridinecarboxamide]",> 1000 nM
9,"O=C(NC1CN2CCC1CC2)c1ccc(=O)n(-c2ccc(C3CCCCC3)cc2)c1 (stereo not shown) [Example 18, N-(1-azabicyclo[2.2.2]octan-3-yl)-1-(4-cyclohexylphenyl)-6-oxo-3-pyridinecarboxamide]",500 to 1000 nM
10,"CSc1cc(C(C)C)ccc1-n1cc(C(=O)NC2CN3CCC2CC3)ccc1=O (stereo not shown) [Example 96, N-(1-azabicyclo[2.2.2]octan-3-yl)-1-[2-(methylthio)-4-propan-2-ylphenyl]-6-oxo-3-pyridinecarboxamide]",< 100 nM
11,"CC(C)Sc1cc(Cl)ccc1-n1cc(C(=O)NC2CN3CCC2CC3)ccc1=O (stereo not shown) [Example 93, N-(1-azabicyclo[2.2.2]octan-3-yl)-1-[4-chloro-2-(propan-2-ylthio)phenyl]-6-oxo-3-pyridinecarboxamide]",100 to 500 nM
12,"CCCc1ccc(-n2cc(C(=O)NC3CN4CCC3CC4)ccc2=O)c(SC)c1 (stereo not shown) [Example 94, N-(1-azabicyclo[2.2.2]octan-3-yl)-1-[2-(methylthio)-4-propylphenyl]-6-oxo-3-pyridinecarboxamide]",< 100 nM
13,"COc1ccccc1-n1cc(C(=O)NC2CN3CCC2CC3)ccc1=O (stereo not shown) [Example 20, N-(1-azabicyclo[2.2.2]octan-3-yl)-1-(2-methoxyphenyl)-6-oxo-3-pyridinecarboxamide]",500 to 1000 nM
14,"CN(C)c1ccc(-n2cc(C(=O)NC3CN4CCC3CC4)ccc2=O)cc1 (stereo not shown) [Example 113, N-(1-azabicyclo[2.2.2]octan-3-yl)-1-[4-dimethylaminophenyl]-6-oxo-3-pyridinecarboxamide]",500 to 1000 nM
15,"O=C(NC1CN2CCC1CC2)c1ccc(=O)n(-c2ccc(Oc3ccccc3)cc2)c1 (stereo not shown) [Example 73, N-(1-azabicyclo[2.2.2]octan-3-yl)-6-oxo-1-(4-phenoxyphenyl)-3-pyridinecarboxamide]",500 to 1000 nM
16,"O=C(NC1CN2CCC1CC2)c1ccc(=O)n(-c2ccc(F)cc2)c1 (stereo not shown) [Example 7, N-(1-azabicyclo[2.2.2]octan-3-yl)-1-(4-fluorophenyl)-6-oxo-3-pyridinecarboxamide]",500 to 1000 nM
17,"Cc1ccc(-c2ccc(-n3cc(C(=O)NC4CN5CCC4CC5)ccc3=O)cc2)s1 (stereo not shown) [Example 108, N-(1-azabicyclo[2.2.2]octan-3-yl)-1-[4-(5-methyl-2-thiophenyl)phenyl]-6-oxo-3-pyridinecarboxamide]",100 to 500 nM
18,"CC(C)Sc1ccccc1-n1cc(C(=O)NC2CN3CCC2CC3)ccc1=O (stereo not shown) [Example 81, N-(1-azabicyclo[2.2.2]octan-3-yl)-6-oxo-1-[2-(propan-2-ylthio)phenyl]-3-pyridinecarboxamide]",100 to 500 nM
19,"CSc1cc(C)ccc1-n1cc(C(=O)N[C@H]2CN3CCC2CC3)ccc1=O [Example 90, N-[(3R)-1-azabicyclo[2.2.2]octan-3-yl]-1-[4-methyl-2-(methylthio)phenyl]-6-oxo-3-pyridinecarboxamide]",< 100 nM
20,"Cc1cnc(-c2ccccc2-n2cc(C(=O)NC3CN4CCC3CC4)ccc2=O)s1 (stereo not shown) [Example 106, N-(1-azabicyclo[2.2.2]octan-3-yl)-1-[2-(5-methyl-2-thiazolyl)phenyl]-6-oxo-3-pyridinecarboxamide]",500 to 1000 nM
